Experiment [1] has as its system B. subtilis var. globigii (ATCC. 9372). On the procedure: (§1) The experiments were designed to identify the conditions optimal for polymer sterilization and also explore the boundary areas to determine the conditions limiting the efficacy of the treatment. Each polymer strip was inoculated by drop spotting approximately 100 micro-liters and coating the surface by swabbing the surface of the polyethylene strip. The culture was allowed to dry before sterilization. Each strip of polyethylene was treated by vigorously agitating the strip in the appropriate treatment solutions. Each treated polymer strip was then treated with catalase to inactivate residual peroxide, swabbed and plated using TGE incubated at 35° C. for two days.
Five replicate polymer strips were used for each of the two methods of the present invention. A log measurement value is provided below each of the non-log values. The first method uses hydrogen peroxide first and then an alkaline solution of sodium hydroxide. The second method uses an alkaline solution of sodium hydroxide first and then hydrogen peroxide. The sterilization was conducted at 50° C.
In Table Three, a solution of 0.1 Normal potassium hydroxide (KOH) was utilized with a solution of 3% hydrogen peroxide at a temperature of 35° C. for 30 seconds.

Experiment [2] has the same test system. The settings on record: 50° C.; for bacteriocidal effect (in words): Table Two conditions; for CFU/Swab / logCFU/Swab / Average (logCFU/Swab) / Log reduction: Table Two; for CFU/Swab / logCFU/Swab: contact times as in the label, one value per replicate; for Average (logCFU/Swab): mean of replicates; for Log reduction: versus inoculated untreated control (6.66). On the procedure:
as §1
A log measurement value is provided below each of the non-log values. The sterilization was conducted at 50° C.

Where [3] appears, read: Table Three, 35° C. for 30 seconds, one value per replicate.

Structures are written as SMILES. Where “and” joins values, the source holds several entries; their conditions need not be identical. Equal values may be shown once. Read-outs that look alike come from different tables or passages of the source.

Take `[Na+].[OH-]` [1M NaOH Control, sodium hydroxide]: the CFU/Swab in experiment [1] (Table One, 50° C., survivors after treatment, inoculum 10^6, one value per replicate strip) is 5,700 CFU/Swab and 210 CFU/Swab. The logCFU/Swab in experiment [1] (Table One, 50° C., survivors after treatment, one value per replicate strip) was 3.76 logCFU/Swab and 2.32 logCFU/Swab.
Regarding `[Na+].[OH-]` [50° C. 10 s 0.25M NaOH Control, sodium hydroxide], in experiment [2], the “bacteriocidal effect (in words)” value was “no bacteriocidal effect”; the CFU/Swab is 3,800,000 CFU/Swab and 7,900,000 CFU/Swab and 5,400,000 CFU/Swab and 6,300,000 CFU/Swab; the logCFU/Swab was 6.80 logCFU/Swab and 6.58 logCFU/Swab and 6.90 logCFU/Swab and 6.73 logCFU/Swab; the “Average (logCFU/Swab)” value turned out to be 6.75.
Take `OO` [50° C. 30 s 3.5% H2O2 10 s catalase, hydrogen peroxide]: in experiment [2], the “bacteriocidal effect (in words)” value is “no effect”; the CFU/Swab was 4,200,000 CFU/Swab and 4,000,000 CFU/Swab and 3,000,000 CFU/Swab and 5,000,000 CFU/Swab and 1,600,000 CFU/Swab; the logCFU/Swab was 6.20 logCFU/Swab and 6.62 logCFU/Swab and 6.60 logCFU/Swab and 6.48 logCFU/Swab and 6.70 logCFU/Swab; the “Average (logCFU/Swab)” value was 6.52. This compound gave a Log reduction in experiment [2] of 0.14.
Consider `OO` [50° C. 30 s 35% H2O2 10 s catalase, hydrogen peroxide], for which, in experiment [2] (thirty second treatment), the rate of inactivation is recorded as 1.45 log per 10 seconds of treatment. In experiment [2], the CFU/Swab is 570 CFU/Swab and 20 CFU/Swab and 270 CFU/Swab and 2700 CFU/Swab and 40 CFU/Swab; the logCFU/Swab is 1.60 logCFU/Swab and 2.76 logCFU/Swab and 1.30 logCFU/Swab and 2.43 logCFU/Swab and 3.43 logCFU/Swab; the “Average (logCFU/Swab)” value was determined as 2.30; the Log reduction is 4.35. This compound also came in with a Log reduction in experiment [2] (listed as thirty second hydrogen peroxide treatment (column 4)) of 4.35.
Consider `OO` [H2O2 Control, hydrogen peroxide], for which, in experiment [1] (setting [3]), the CFU/Swab is recorded as 5,200,000 CFU/Swab and the logCFU/Swab was determined as 6.72 logCFU/Swab.

The record behind these values is US20070006551A1, “Method and apparatus for sterilizing and filling containers” (priority 2005, published 2007).
